From patent publication US20220096664A1, “STABILIZED FORMULATIONS CONTAINING IODINATED CONTRAST AGENTS AND CYCLODEXTRINS” (Verrow Pharmaceuticals, Inc., priority 2012, published 2022)
Like-named read-outs stand apart in the source and are kept apart here. Blank lines part the entries; values can stand above or below the compound they belong to.

What was measured:
[1] = Photostability: iodide formed after visible light irradiation; type: physicochemical; conditions: for Iodide formed: 50 mM agent, 10 mM TRIS, pH 7.4, VIS 72 h
Procedure: Aqueous solutions comprising iodinated contrast agents were prepared and evaluated in a photolysis chamber as described in the ICH guidance document, Q1B Photostability Testing of New Drug Substances and Products, available from the US Food and Drug Administration, incorporated herein by reference. The solutions were placed in 1 cm×1 cm (3 mL) quartz cuvettes having 2 clear sides and 2 sides etched. Lids were placed on the cuvettes and sealed with a wrap of Parafilm® around the joint. The cuvettes were placed in a photolysis chamber, upright on a flat surface beneath and centered between two horizontal 24 inch fluorescent lamps, (GE, black light F20T12, 20 watt for ultraviolet, or Philips F20T12/CW, 20 watt for visible) placed 6 cm apart. The cuvettes were positioned such that their two clear sides were facing the two lamps.
Cuvettes were spaced ˜2 cm from each other, and no closer than 15 cm from the ends of the lamps. This positioning allowed reproducible light exposure to all cuvettes.
(§1) The lamps were switched on and the solutions irradiated for 18 to 24 hours for the ultraviolet (UV) lamps or 72 to 90 hours for the visible (VIS) light lamps. At the end of the selected irradiation time, the cuvettes were removed from the photolysis chamber and mixed by inversion 2-times. The caps were then removed and 40 microliter aliquots taken and diluted with 1 mL of an aqueous solution containing ˜0.9 mg/mL sodium thiosulfate. The thiosulfate solution converted any I2, IO3^−, and I3^− present in the solution tor such that total iodine species could be determined in one assay.
(§2) The diluted solutions were assayed by high pressure liquid chromatography (HPLC) using a 4.6×250 mm, C-18, 5 micron particle size, reversed phase column with detection at 280 nm for the contrast agent and 230 nm for the thiosulfate and the iodide ion (r). A mobile phase of 30:70 methanol:aqueous buffer (50 mM KH2PO4+7 mL/L 40% tetrabutyl ammonium hydroxide) at 0.75 mL/min was used for elution. Injection volume was 20 microliters. External standards were prepared containing each contrast agent, potassium iodide, and sodium thiosulfate solution and analyzed along with the irradiated samples. The results were reported as weight percentage iodide formed (mg iodide/mg contrast agent times 100).
The absorbance readings at 400 nm due to light exposure were plotted against time of exposure and the resulting correlation used to determine the UV and VIS light exposure. A change in absorbance reading of 0.45 was assumed equivalent to 200 watt hours/square meter for the UV light and a change of 0.51 was assumed equivalent to 1.2 million lux hours for the VIS light. The UV lamps provided 6.62 watts/square meter and the VIS lamps provided 7180 lux.
Aqueous solutions were prepared containing 473 mM iohexol (180 mg 1/mL), 10 mM tromethamine HCl buffer (TRIS), with and without various SCDs. The pH of the solutions was adjusted to 7.4 with 0.1N hydrochloric acid. Aliquots of the solutions were irradiated with ultraviolet (UV) light for 18 hours (119 watt hours/m^2) and other aliquots irradiated with visible (VIS) light for 90 hours (0.65 million lux hours). The solutions were then processed, analyzed and reported as in Example 2, with the exception that the iohexol peak was measured at 300 nm for both samples and standards. Results of the study are presented in the table below along with the SCD used. The SCDs included derivatives prepared from alpha, beta, and gamma CD to evaluate the effect of CD cavity size. Various substituents, including one derivative containing more than one type of substituent, and degrees of substitution (DS) were also evaluated.
Aqueous solutions were prepared containing 50 mM iodinated contrast agent, 10 mM tromethamine HCl buffer (TRIS), with and without sulfobutylether beta-cyclodextrin with an average degree of substitution-7 (SBE7-β-CD), or 2-hydroxypropyl beta-cyclodextrin with an average degree of substitution of ˜6.3 (HP6.3-β-CD) or ˜4.3 (HP4.3-β-CD). […]

[2] = type: physicochemical
Procedure: as §1, §2
Aqueous solutions were prepared containing 50 mM iodinated contrast agent, 10 mM tromethamine HCl buffer (TRIS), with and without sulfobutylether beta-cyclodextrin with an average degree of substitution-7 (SBE7-β-CD), or 2-hydroxypropyl beta-cyclodextrin with an average degree of substitution of ˜6.3 (HP6.3-β-CD) or ˜4.3 (HP4.3-β-CD). The iohexol solution was prepared by dissolving solid iohexol powder while the other solutions were prepared by diluting commercial formulated products and adding sufficient TRIS buffer to reach 10 mM. The pH of the solutions was adjusted to 7.4 with 0.1N hydrochloric acid.
Aliquots of the solutions were irradiated with visible light for 72 hours (0.52 million lux hours). Other aliquots were autoclaved for 20 minutes at 121° C., cooled to room temperature and then irradiated with ultraviolet light for 18 hours (119 watt hours/m2). The solutions were then processed, analyzed and reported as in Example 2, except that the chromatographic peaks of the contrast agents were evaluated at 300 nm for both samples and standards. […]
Aqueous formulations were prepared containing iodinated contrast agents at concentrations used commercially in medical procedures. Sulfobutylether-cyclodextrin, sodium salt, average degree of substitution ˜7 (SBE7CD) was added at varying agent:CD mole ratios. The formulations were placed in glass vials, sealed with rubber stoppers and aluminum crimps, and autoclaved at 121° C. for 20 minutes. Aliquots of the autoclaved solutions were exposed to UV light for 24 hours (159 watt hours/m^2 or VIS light for 72 hours (0.52 million lux hours) as in Example 2. The solutions were then processed, analyzed and reported as in Example 2, with the following two exceptions; 1) the chromatographic peaks of the contrast agents were evaluated at 300 nm for both samples and standards, and 2) only 20 microliter sample aliquots were taken and diluted for HPLC analysis due to the higher concentrations used in this study. Results of the study are presented in the table below along with the solution compositions.

Structure (SMILES): CC(=O)N(CC(O)CN(C(C)=O)c1c(I)c(C(=O)NCC(O)CO)c(I)c(C(=O)NCC(O)CO)c1I)c1c(I)c(C(=O)NCC(O)CO)c(I)c(C(=O)NCC(O)CO)c1I (stereo not drawn) [Iodixanol, iodixanol]
Iodide formed ([1]; agent:SBE7-β-CD 1:0.1): 0.142 wt %
Iodide formed ([1]; no SCD (1:0)): 0.153 wt %
Iodide Formed, Autoclaved ([2]; Iodixanol 270 mg I/mL, pH 7.4, agent:SBE7CD 1:0.05): 0.0161 wt %
Iodide Formed, Autoclaved ([2]; Iodixanol 270 mg I/mL, pH 7.4, no SCD (1:0)): 0.0167 wt %
Iodide Formed, Autoclaved ([2]; Iodixanol 320 mg I/mL, pH 7.4, agent:SBE7CD 1:0.05): 0.0135 wt %
Iodide Formed, Autoclaved ([2]; Iodixanol 320 mg I/mL, pH 7.4, no SCD (1:0)): 0.0132 wt %

Iodide formed ([1]; agent:SBE7-β-CD 1:0.1): 0.301 wt %
Iodide formed ([1]; no SCD (1:0)): 0.304 wt %
percent change in iodide degradants formed in the presence of the SCD ([1]; 72 h, 50 mM, pH 7.4): (−1%)
percent change in iodide degradants formed in the presence of the SCD ([2]; 20 min, 50 mM, pH 7.4): (−30.8%)
Iodide Formed, Autoclaved ([2]; Ioversol 160 mg I/mL, pH 7.1, agent:SBE7CD 1:0.05): 0.0241 wt %
Iodide Formed, Autoclaved ([2]; Ioversol 160 mg I/mL, pH 7.1, no SCD (1:0)): 0.0244 wt %
Iodide Formed, Autoclaved ([2]; Ioversol 240 mg I/mL, pH 7.1, agent:SBE7CD 1:0.05): 0.0162 wt %
Iodide Formed, Autoclaved ([2]; Ioversol 240 mg I/mL, pH 7.1, no SCD (1:0)): 0.0160 wt %
Iodide Formed, Autoclaved ([2]; Ioversol 300 mg I/mL, pH 7.1, agent:SBE7CD 1:0.05): 0.0129 wt %
Iodide Formed, Autoclaved ([2]; Ioversol 300 mg I/mL, pH 7.1, no SCD (1:0)): 0.0135 wt %
Iodide Formed, Autoclaved ([2]; Ioversol 320 mg I/mL, pH 7.1, agent:SBE7CD 1:0.05): 0.0127 wt %
Iodide Formed, Autoclaved ([2]; Ioversol 320 mg I/mL, pH 7.1, no SCD (1:0)): 0.0130 wt %
Iodide Formed, Autoclaved ([2]; Ioversol 350 mg I/mL, pH 7.1, agent:SBE7CD 1:0.05): 0.0120 wt %
Iodide Formed, Autoclaved ([2]; Ioversol 350 mg I/mL, pH 7.1, no SCD (1:0)): 0.0124 wt %
Structure (SMILES): O=C(NCC(O)CO)c1c(I)c(C(=O)NCC(O)CO)c(I)c(N(CCO)C(=O)CO)c1I (stereo not drawn) [Ioversol, ioversol]

Iodide formed ([1]; agent:SBE7-β-CD 1:0.1): 0.269 wt %
Iodide formed ([1]; no SCD (1:0)): 0.311 wt %
Iodide Formed, Autoclaved ([2]; Iopromide 150 mg I/mL, pH 7.4, agent:SBE7CD 1:0.05): 0.00289 wt %
Iodide Formed, Autoclaved ([2]; Iopromide 150 mg I/mL, pH 7.4, no SCD (1:0)): 0.00383 wt %
Iodide Formed, Autoclaved ([2]; Iopromide 240 mg I/mL, pH 7.4, agent:SBE7CD 1:0.05): 0.00217 wt %
Iodide Formed, Autoclaved ([2]; Iopromide 240 mg I/mL, pH 7.4, no SCD (1:0)): 0.00204 wt %
Iodide Formed, Autoclaved ([2]; Iopromide 300 mg I/mL, pH 7.4, agent:SBE7CD 1:0.05): 0.00118 wt %
Iodide Formed, Autoclaved ([2]; Iopromide 300 mg I/mL, pH 7.4, no SCD (1:0)): 0.00145 wt %
Iodide Formed, Autoclaved ([2]; Iopromide 370 mg I/mL, pH 7.4, agent:SBE7CD 1:0.05): 0.00072 wt %
Iodide Formed, Autoclaved ([2]; Iopromide 370 mg I/mL, pH 7.4, no SCD (1:0)): 0.00111 wt %
Structure (SMILES): COCC(=O)Nc1c(I)c(C(=O)NCC(O)CO)c(I)c(C(=O)N(C)CC(O)CO)c1I (stereo not drawn) [Iopromide, iopromide]
